In US20080214648A1, “Hiv Prodrugs Cleavable by Cd26” (priority 2003, published 2008):

What was measured:
purified CD26 = purified CD26 (Homo sapiens, UniProt P27487); assay: Conversion of Val-Pro-PI 1 to PI 1 by purified CD26; type: biochemical
Description: (§1) A: CD26; B: bovine serum; C: human serum (both 10% in PBS).
(§2) Ten percent BS or HS converted 40 to 70% of Val-Pro-PI 1 to PI 1 in one hour (FIG. 10). Two percent BS and HS converted Val-Pro-PI 1 to PI 1 by 8% and 25%, respectively. After 4 hrs, 35% and 95% of compound was hydrolyzed by BS and HS, respectively (FIG. 11).
(§3) Compounds were separated on a Reverse Phase RP-8 (Merck) using a gradient with buffer A (50 mM NaH2PO4+5 mM heptane sulfonic acid pH 3.2) and buffer B (acetonitrile).
(§4) 0→2 min: 2% buffer B; 2→8 min: 20% buffer B; 8→10 min: 25% buffer B; 10→12 min: 35% buffer B; 12→30 min: 50% buffer B; 30→35 min: 50% buffer B; 35→40 min: 2% buffer B; 40→45 min: 2% buffer B. Rt values of Val-Pro-PI 1 and PI 1 were 18.7 and 17.7 min, respectively.

[1] = Conversion of Val-Pro-PI 1 to PI 1 by bovine serum diluted in PBS; type: in vitro ADME; conditions: 2% bovine serum (BS) in PBS
Description: as §1
(§5) FIG. 3a: Bovine serum (2% in PBS), FIG. 3b: Human serum (2% in PBS).
as §2, §3, §4

[2] = Conversion of Val-Pro-PI 1 to PI 1 by human serum diluted in PBS; type: in vitro ADME; conditions: 2% human serum (HS) in PBS
Description: as §1, §5, §2, §3, §4

CD26 = CD26 (Homo sapiens, UniProt P27487); assay: Competitive inhibition of CD26-catalysed conversion of GP-pNA to GP+pNA (purified CD26); type: biochemical
Description: (§6) The CD26 catalytic reaction was measured by recording the increase of absorption caused by pNA release at 400 nm.

CD26 in bovine serum = target: T1, CD26 in bovine serum (Bos taurus, UniProt P81425); assay: Inhibition of GP-pNA conversion to pNA by 2% bovine serum in PBS; type: biochemical; conditions: 2% BS in PBS, compared with purified CD26
T1 construct: Conversion of GP-pNA to pNA by two percent BS in PBS; from tissue; host or cells: bovine serum, 2% in PBS
Description: as §6

CD26 in human serum = target: T2, CD26 in human serum (Homo sapiens, UniProt P27487); assay: Inhibition of GP-pNA conversion to pNA by 2% human serum in PBS; type: biochemical; conditions: HS 2% in PBS
T2 construct: from tissue; host or cells: human serum, 2% in PBS
Description: as §6

[3] = time not printed (preceding sentence: one hour)

Chain of CD26 (P27487 whole entry, species assumed): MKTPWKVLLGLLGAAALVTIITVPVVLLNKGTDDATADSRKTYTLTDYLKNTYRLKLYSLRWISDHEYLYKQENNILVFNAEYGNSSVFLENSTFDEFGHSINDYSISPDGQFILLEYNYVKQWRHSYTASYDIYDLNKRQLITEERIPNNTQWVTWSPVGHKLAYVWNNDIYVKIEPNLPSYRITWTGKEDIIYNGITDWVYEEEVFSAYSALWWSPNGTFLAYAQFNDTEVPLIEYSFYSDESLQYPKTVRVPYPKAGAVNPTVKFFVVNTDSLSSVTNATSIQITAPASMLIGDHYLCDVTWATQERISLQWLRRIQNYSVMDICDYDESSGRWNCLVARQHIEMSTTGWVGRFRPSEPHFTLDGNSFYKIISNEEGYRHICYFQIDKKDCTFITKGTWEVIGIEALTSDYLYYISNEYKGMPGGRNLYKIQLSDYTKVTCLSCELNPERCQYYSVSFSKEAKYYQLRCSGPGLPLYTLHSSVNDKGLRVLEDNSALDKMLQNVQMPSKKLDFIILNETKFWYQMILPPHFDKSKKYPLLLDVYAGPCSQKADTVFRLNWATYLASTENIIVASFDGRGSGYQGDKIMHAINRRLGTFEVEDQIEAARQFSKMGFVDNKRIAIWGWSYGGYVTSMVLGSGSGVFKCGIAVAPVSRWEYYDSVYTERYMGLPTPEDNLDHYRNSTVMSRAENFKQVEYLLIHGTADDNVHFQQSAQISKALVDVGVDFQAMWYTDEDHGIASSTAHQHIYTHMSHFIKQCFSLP
T1 sequence (P81425 38-765): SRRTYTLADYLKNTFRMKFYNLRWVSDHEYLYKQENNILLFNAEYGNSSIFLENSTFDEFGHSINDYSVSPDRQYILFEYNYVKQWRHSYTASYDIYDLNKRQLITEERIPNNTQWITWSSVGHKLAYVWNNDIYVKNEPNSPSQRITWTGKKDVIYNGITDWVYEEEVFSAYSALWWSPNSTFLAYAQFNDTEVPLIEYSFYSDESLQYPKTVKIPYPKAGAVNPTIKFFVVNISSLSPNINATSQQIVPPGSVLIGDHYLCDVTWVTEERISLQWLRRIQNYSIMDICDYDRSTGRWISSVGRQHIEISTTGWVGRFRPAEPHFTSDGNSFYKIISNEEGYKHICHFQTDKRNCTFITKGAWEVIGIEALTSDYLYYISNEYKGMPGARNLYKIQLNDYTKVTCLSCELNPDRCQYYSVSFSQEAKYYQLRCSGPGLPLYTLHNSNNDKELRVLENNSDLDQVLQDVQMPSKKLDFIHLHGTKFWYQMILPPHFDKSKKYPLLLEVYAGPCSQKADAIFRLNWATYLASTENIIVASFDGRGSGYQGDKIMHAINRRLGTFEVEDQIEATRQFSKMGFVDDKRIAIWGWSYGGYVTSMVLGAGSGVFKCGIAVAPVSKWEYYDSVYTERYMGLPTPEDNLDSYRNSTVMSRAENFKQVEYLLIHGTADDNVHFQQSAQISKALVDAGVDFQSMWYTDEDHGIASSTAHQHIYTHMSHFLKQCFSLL
Chain of purified CD26 (P27487 whole entry, species assumed): as the sequence (P27487 whole entry, species assumed) above
T2 sequence (P27487 39-766 limits assumed): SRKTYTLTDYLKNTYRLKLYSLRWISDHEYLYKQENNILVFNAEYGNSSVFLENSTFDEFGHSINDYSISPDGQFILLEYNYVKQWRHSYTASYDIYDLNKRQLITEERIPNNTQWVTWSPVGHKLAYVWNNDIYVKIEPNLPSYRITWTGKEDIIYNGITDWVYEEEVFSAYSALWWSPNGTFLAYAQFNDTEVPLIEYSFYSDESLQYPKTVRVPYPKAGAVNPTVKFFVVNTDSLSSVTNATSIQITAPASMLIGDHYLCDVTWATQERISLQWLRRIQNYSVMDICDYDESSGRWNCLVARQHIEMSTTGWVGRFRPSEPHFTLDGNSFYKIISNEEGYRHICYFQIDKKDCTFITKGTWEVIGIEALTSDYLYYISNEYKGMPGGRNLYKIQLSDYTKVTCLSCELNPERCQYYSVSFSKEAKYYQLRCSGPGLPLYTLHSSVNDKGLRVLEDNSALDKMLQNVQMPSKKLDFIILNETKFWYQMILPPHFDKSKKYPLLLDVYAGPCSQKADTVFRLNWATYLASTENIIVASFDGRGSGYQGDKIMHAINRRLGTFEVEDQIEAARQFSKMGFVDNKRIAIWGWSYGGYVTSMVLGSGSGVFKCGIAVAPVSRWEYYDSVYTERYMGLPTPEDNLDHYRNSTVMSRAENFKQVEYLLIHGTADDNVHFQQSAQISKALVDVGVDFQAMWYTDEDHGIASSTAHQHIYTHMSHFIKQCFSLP

Structure (SMILES): CC(C)CN(C[C@@H](O)[C@H](Cc1ccccc1)NC(=O)O[C@H]1CO[C@H]2OCC[C@H]21)S(=O)(=O)c1ccc(CNC(=O)[C@@H]2CCCN2C(=O)[C@@H](N)C(C)C)cc1 [Val-Pro-PI 1]
- time to complete conversion of Val-Pro-PI 1 to PI 1 (purified CD26): ≤ 60 min
- compound hydrolyzed ([1]; after 4 hrs): 35%
- conversion of Val-Pro-PI 1 to PI 1 [1, 3]: 8%
- compound hydrolyzed ([2]; after 4 hrs): 95%
- conversion of Val-Pro-PI 1 to PI 1 [2, 3]: 25%
- inhibition of release of pNA from GP-pNA (CD26; 20 μM Val-Pro-PI 1, 50 μM GP-pNA): could inhibit
- competition with substrate GP-pNA for CD26 (CD26; 100 μM Val-Pro-PI 1, 50 μM GP-pNA): efficiently competed
- inhibition of conversion of GP-pNA to pNA (CD26 in bovine serum): even more efficiently inhibited
- inhibition of GP-pNA conversion to pNA (CD26 in human serum): competitively inhibited
